In patent publication US11530210B2, “Substituted heteroaromatic pyrazolo-pyridines and their use as GLUN2B receptor modulators” (JANSSEN PHARMACEUTICA NV, priority 2019, dated 2022):
Counter-ions that a name gives are not always drawn.

target: T1, human GluN1/GluN2B NMDA receptors (Homo sapiens, UniProt Q13224); assay: Calcium flux (FLIPR) assay on cloned human NR1/GluN2B ion channels expressed in mammalian cells (standard and HTS variants); assay type: cell-based; details: cells expressing human GluN1/GluN2B, glutamate and glycine co-agonists
T1 construct: expressed in transfected cells
Outline: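 Tet-On-induced stable cell line loaded with Calcium 5 dye; compounds applied 5 min (agonist check), then glutamate at ~EC40 plus 10 μM glycine for 5 min. Buffer pH 7.4 with 0.5 mM MgCl2 in dye loading (standard) or 1.5 mM (HTS). FLIPR fluorescence normalized to control wells; (+)MK-801 as antagonist control.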

T1 sequence (Q13224 27-1484, other chains not shown): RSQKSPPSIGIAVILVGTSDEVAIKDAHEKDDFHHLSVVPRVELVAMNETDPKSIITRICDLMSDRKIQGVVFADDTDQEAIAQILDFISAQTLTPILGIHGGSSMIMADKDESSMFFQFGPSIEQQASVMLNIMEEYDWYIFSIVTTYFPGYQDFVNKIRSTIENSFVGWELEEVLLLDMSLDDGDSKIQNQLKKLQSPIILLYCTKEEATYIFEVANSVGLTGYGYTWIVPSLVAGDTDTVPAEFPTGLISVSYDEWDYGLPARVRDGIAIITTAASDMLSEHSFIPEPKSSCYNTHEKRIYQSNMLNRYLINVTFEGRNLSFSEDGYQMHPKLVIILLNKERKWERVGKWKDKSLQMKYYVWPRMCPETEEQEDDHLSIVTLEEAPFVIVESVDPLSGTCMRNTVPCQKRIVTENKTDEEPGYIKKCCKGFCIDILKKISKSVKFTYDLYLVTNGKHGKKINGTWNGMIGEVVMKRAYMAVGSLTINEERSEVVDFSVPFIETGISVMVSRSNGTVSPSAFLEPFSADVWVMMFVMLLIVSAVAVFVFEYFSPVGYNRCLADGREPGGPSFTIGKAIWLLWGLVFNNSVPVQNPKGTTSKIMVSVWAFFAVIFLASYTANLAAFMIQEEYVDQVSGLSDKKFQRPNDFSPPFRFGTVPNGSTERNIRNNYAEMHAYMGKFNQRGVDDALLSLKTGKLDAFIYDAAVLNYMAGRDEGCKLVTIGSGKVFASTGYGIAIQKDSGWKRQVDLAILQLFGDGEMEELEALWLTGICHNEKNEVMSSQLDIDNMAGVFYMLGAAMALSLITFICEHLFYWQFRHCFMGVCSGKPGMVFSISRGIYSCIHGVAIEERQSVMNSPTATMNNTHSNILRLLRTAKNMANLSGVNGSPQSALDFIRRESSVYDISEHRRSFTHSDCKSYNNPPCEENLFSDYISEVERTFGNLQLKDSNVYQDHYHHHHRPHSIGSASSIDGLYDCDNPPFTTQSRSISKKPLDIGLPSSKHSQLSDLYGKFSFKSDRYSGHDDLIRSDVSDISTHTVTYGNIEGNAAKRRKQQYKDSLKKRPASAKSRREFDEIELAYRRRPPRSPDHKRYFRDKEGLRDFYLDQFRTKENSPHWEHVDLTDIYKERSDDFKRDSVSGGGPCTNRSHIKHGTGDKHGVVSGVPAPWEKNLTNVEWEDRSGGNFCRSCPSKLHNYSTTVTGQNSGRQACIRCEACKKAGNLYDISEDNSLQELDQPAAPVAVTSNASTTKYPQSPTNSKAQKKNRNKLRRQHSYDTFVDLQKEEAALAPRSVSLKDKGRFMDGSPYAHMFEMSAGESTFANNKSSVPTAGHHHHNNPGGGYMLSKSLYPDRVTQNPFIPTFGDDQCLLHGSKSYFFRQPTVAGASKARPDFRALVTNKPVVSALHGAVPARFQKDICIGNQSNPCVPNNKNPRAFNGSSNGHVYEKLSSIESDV

IC50 [µM] | Structure (SMILES)
0.04 | CC(F)(F)c1cccc(-c2cnc3cnn(Cc4cncc(F)c4)c3c2)c1 [Example 161, 6-[3-(1,1-Difluoroethyl)phenyl]-1-[(5-fluoro-3-pyridyl)methyl]pyrazolo[4,3-b]pyridine]
0.93 | FC(F)(F)c1cccc(-c2cnc3cnn(Cc4ccccn4)c3c2)c1 [Example 162, 1-(2-Pyridylmethyl)-6-[3-(trifluoromethyl)phenyl]pyrazolo[4,3-b]pyridine]
0.09 | FC(F)(F)c1cccc(-c2cnc3cnn(Cc4cccnc4)c3c2)c1 [Example 163, 1-(3-Pyridylmethyl)-6-[3-(trifluoromethyl)phenyl]pyrazolo[4,3-b]pyridine hydrochloride salt]
0.798 | FC(F)(F)c1cccc(-c2cnc3cnn(Cc4ccncc4)c3c2)c1 [Example 164, 1-(4-Pyridylmethyl)-6-[3-(trifluoromethyl)phenyl]pyrazolo[4,3-b]pyridine hydrochloride salt]
2.17 | Cc1ccc(Cn2ncc3ncc(-c4cccc(C(F)(F)F)c4)cc32)cn1 [Example 165, 1-[(6-Methyl-3-pyridyl)methyl]-6-[3-(trifluoromethyl)phenyl]pyrazolo[4,3-b]pyridine]
0.87 | Cc1ncccc1Cn1ncc2ncc(-c3cccc(C(F)(F)F)c3)cc21 [Example 166, 1-[(2-Methyl-3-pyridyl)methyl]-6-[3-(trifluoromethyl)phenyl]pyrazolo[4,3-b]pyridine]
0.25 | Cc1cncc(Cn2ncc3ncc(-c4cccc(C(F)(F)F)c4)cc32)c1 [Example 167, 1-[(5-Methyl-3-pyridyl)methyl]-6-[3-(trifluoromethyl)phenyl]pyrazolo[4,3-b]pyridine]
0.161 | Cc1ccncc1Cn1ncc2ncc(-c3cccc(C(F)(F)F)c3)cc21 [Example 168, 1-[(4-Methyl-3-pyridyl)methyl]-6-[3-(trifluoromethyl)phenyl]pyrazolo[4,3-b]pyridine trifluoroacetate salt]
0.234 | Fc1ccc(Cn2ncc3ncc(-c4cccc(C(F)(F)F)c4)cc32)cn1 [Example 169, 1-[(6-Fluoro-3-pyridyl)methyl]-6-[3-(trifluoromethyl)phenyl]pyrazolo[4,3-b]pyridine]
1.04 | Fc1ncccc1Cn1ncc2ncc(-c3cccc(C(F)(F)F)c3)cc21 [Example 170, 1-[(2-Fluoro-3-pyridyl)methyl]-6-[3-(trifluoromethyl)phenyl]pyrazolo[4,3-b]pyridine]
0.212 | Fc1cncc(Cn2ncc3ncc(-c4cccc(C(F)(F)F)c4)cc32)c1 [Example 171, 1-[(5-Fluoro-3-pyridyl)methyl]-6-[3-(trifluoromethyl)phenyl]pyrazolo[4,3-b]pyridine]
7.78 | COc1ncccc1Cn1ncc2ncc(-c3cccc(C(F)(F)F)c3)cc21 [Example 172, 1-[(2-Methoxy-3-pyridyl)methyl]-6-[3-(trifluoromethyl)phenyl]pyrazolo[4,3-b]pyridine trifluoroacetate salt]
0.21 | COc1cncc(Cn2ncc3ncc(-c4cccc(C(F)(F)F)c4)cc32)c1 [Example 173, 1-[(5-Methoxy-3-pyridyl)methyl]-6-[3-(trifluoromethyl)phenyl]pyrazolo[4,3-b]pyridine]
11.9 | FC(F)(F)c1cccc(-c2cnc3cnn(Cc4ccc(C(F)(F)F)nc4)c3c2)c1 [Example 174, 6-[3-(Trifluoromethyl)phenyl]-1-[[6-(trifluoromethyl)-3-pyridyl]methyl]pyrazolo[4,3-b]pyridine]
2.3 | FC(F)(F)c1cncc(Cn2ncc3ncc(-c4cccc(C(F)(F)F)c4)cc32)c1 [Example 175, 6-[3-(Trifluoromethyl)phenyl]-1-[[5-(trifluoromethyl)-3-pyridyl]methyl]pyrazolo[4,3-b]pyridine]
1.3 | FC(F)(F)c1cccc(-c2cnc3cnn(Cc4cnccc4C(F)(F)F)c3c2)c1 [Example 176, 6-[3-(Trifluoromethyl)phenyl]-1-[[4-(trifluoromethyl)-3-pyridyl]methyl]pyrazolo[4,3-b]pyridine]
0.023 | Cc1cc(-c2cnc3cnn(Cc4cccnc4)c3c2)ccc1F [Example 177, 6-(4-Fluoro-3-methyl-phenyl)-1-(3-pyridylmethyl)pyrazolo[4,3-b]pyridine]
0.026 | Cc1cc(-c2cnc3c(F)nn(Cc4cccnc4)c3c2)ccc1F [Example 178, 3-Fluoro-6-(4-fluoro-3-methyl-phenyl)-1-(3-pyridylmethyl)pyrazolo[4,3-b]pyridine]
0.507 | Cc1cc(-c2cnc3cnn(Cc4cccnc4C)c3c2)ccc1F [Example 179, 6-(4-Fluoro-3-methyl-phenyl)-1-[(2-methyl-3-pyridyl)methyl]pyrazolo[4,3-b]pyridine]
0.062 | Cc1cncc(Cn2ncc3ncc(-c4ccc(F)c(C)c4)cc32)c1 [Example 180, 6-(4-Fluoro-3-methyl-phenyl)-1-[(5-methyl-3-pyridyl)methyl]pyrazolo[4,3-b]pyridine trifluoroacetate salt]

IC50 [µM] | Structure (SMILES)
0.113 | Cc1cc(-c2cnc3cnn(Cc4cnccc4C)c3c2)ccc1F [Example 181, 6-(4-Fluoro-3-methyl-phenyl)-1-[(4-methyl-3-pyridyl)methyl]pyrazolo[4,3-b]pyridine trifluoroacetate salt]
0.064 | Cc1cc(-c2cnc3cnn(Cc4ccc(F)nc4)c3c2)ccc1F [Example 182, 6-(4-Fluoro-3-methyl-phenyl)-1-[(6-fluoro-3-pyridyl)methyl]pyrazolo[4,3-b]pyridine]
0.021 | Cc1cc(-c2cnc3cnn(Cc4cncc(F)c4)c3c2)ccc1F [Example 183, 6-(4-Fluoro-3-methyl-phenyl)-1-[(5-fluoro-3-pyridyl)methyl]pyrazolo[4,3-b]pyridine]
0.068 | Cc1ccncc1Cn1ncc2ncc(-c3cc(F)cc(F)c3)cc21 [Example 184, 6-(3,5-Difluorophenyl)-1-[(4-methyl-3-pyridyl)methyl]pyrazolo[4,3-b]pyridine trifluoroacetate salt]
0.045 | Fc1cncc(Cn2ncc3ncc(-c4cc(F)cc(F)c4)cc32)c1 [Example 185, 6-(3,5-Difluorophenyl)-1-[(5-fluoro-3-pyridyl)methyl]pyrazolo[4,3-b]pyridine]
2.52 | Fc1ccc(-c2cnc3cnn(Cc4ccccn4)c3c2)cc1F [Example 186, 6-(3,4-Difluorophenyl)-1-(2-pyridylmethyl)pyrazolo[4,3-b]pyridine trifluoroacetate salt]
0.218 | Fc1ccc(-c2cnc3cnn(Cc4cccnc4)c3c2)cc1F [Example 187, 6-(3,4-Difluorophenyl)-1-(3-pyridylmethyl)pyrazolo[4,3-b]pyridine trifluoroacetate salt]
3.62 | Cc1ncccc1Cn1ncc2ncc(-c3ccc(F)c(F)c3)cc21 [Example 188, 6-(3,4-Difluorophenyl)-1-[(2-methyl-3-pyridyl)methyl]pyrazolo[4,3-b]pyridine]
0.07 | Cc1cncc(Cn2ncc3ncc(-c4ccc(F)c(F)c4)cc32)c1 [Example 189, 6-(3,4-Difluorophenyl)-1-[(5-methyl-3-pyridyl)methyl]pyrazolo[4,3-b]pyridine]
0.158 | Cc1ccncc1Cn1ncc2ncc(-c3ccc(F)c(F)c3)cc21 [Example 190, 6-(3,4-Difluorophenyl)-1-[(4-methyl-3-pyridyl)methyl]pyrazolo[4,3-b]pyridine trifluoroacetate salt]
0.176 | Fc1ccc(Cn2ncc3ncc(-c4ccc(F)c(F)c4)cc32)cn1 [Example 191, 6-(3,4-Difluorophenyl)-1-[(6-fluoro-3-pyridyl)methyl]pyrazolo[4,3-b]pyridine]
0.048 | Fc1cncc(Cn2ncc3ncc(-c4ccc(F)c(F)c4)cc32)c1 [Example 192, 6-(3,4-Difluorophenyl)-1-[(5-fluoro-3-pyridyl)methyl]pyrazolo[4,3-b]pyridine trifluoroacetate salt]
0.277 | COc1cncc(Cn2ncc3ncc(-c4ccc(F)c(F)c4)cc32)c1 [Example 193, 6-(3,4-Difluorophenyl)-1-[(5-methoxy-3-pyridyl)methyl]pyrazolo[4,3-b]pyridine]
0.85 | Fc1ccc(-c2cnc3cnn(Cc4cncc(OC(F)F)c4)c3c2)cc1F [Example 194, 1-[[5-(Difluoromethoxy)-3-pyridyl]methyl]-6-(3,4-difluorophenyl)pyrazolo[4,3-b]pyridine]
0.025 | Fc1cncc(Cn2ncc3ncc(-c4ccc(F)c(Cl)c4)cc32)c1 [Example 195, 6-(3-Chloro-4-fluoro-phenyl)-1-[(5-fluoro-3-pyridyl)methyl]pyrazolo[4,3-b]pyridine]
0.152 | COc1cncc(Cn2ncc3ncc(-c4ccc(F)c(Cl)c4)cc32)c1 [Example 196, 6-(3-Chloro-4-fluoro-phenyl)-1-[(5-methoxy-3-pyridyl)methyl]pyrazolo[4,3-b]pyridine]
0.13 | Fc1ccc(-c2cnc3cnn(Cc4ccccn4)c3c2)cc1C(F)F [Example 197, 6-[3-(Difluoromethyl)-4-fluoro-phenyl]-1-(2-pyridylmethyl)pyrazolo[4,3-b]pyridine]
0.034 | Cc1nn(Cc2cccnc2)c2cc(-c3ccc(F)c(C(F)F)c3)cnc12 [Example 199, 6-[3-(Difluoromethyl)-4-fluoro-phenyl]-3-methyl-1-(3-pyridylmethyl)pyrazolo[4,3-b]pyridine]
0.012 | Cc1cncc(Cn2ncc3ncc(-c4ccc(F)c(C(F)F)c4)cc32)c1 [Example 200, 6-[3-(Difluoromethyl)-4-fluoro-phenyl]-1-[(5-methyl-3-pyridyl)methyl]pyrazolo[4,3-b]pyridine]
0.016 | Fc1ccc(Cn2ncc3ncc(-c4ccc(F)c(C(F)F)c4)cc32)cn1 [Example 201, 6-(3-(Difluoromethyl)-4-fluorophenyl)-1-((6-fluoropyridin-3-yl)methyl)-1H-pyrazolo[4,3-b]pyridine]
